{"source": "patent US20260240885A1", "about": "“PHOSPHORYLATED HEXAACYL DISACCHARIDES FOR TREATING OR PREVENTING ACUTE KIDNEY INJURY” (VANDERBILT UNIVERSITY, priority 2022, published 2026)", "key": {"unilateral IRI-AKI": {"tested_on": "unilateral IRI-AKI", "assay": "Unilateral IRI-AKI (left renal pedicle clamping 28 min with contralateral nephrectomy) in mice pretreated with PHAD", "format": "in vivo, mouse (male BALB/c)", "description": "(§1) A blinded, randomized controlled study in mice, assessed the efficacy of intravenous 3D 6-Acyl phosphorylated hexa-acyl disaccharide (PHAD, a de novo ultrapure synthetic toll-like receptor 4 agonist), to protect against IRI-AKI. Two cohorts of male BALB/c mice received intraperitoneal vehicle or PHAD (10, 20, or 40 μg); or intravenous vehicle or PHAD (2, 20, or 200 μg) at 48 and 24 hours prior to unilateral renal pedicle clamping and simultaneous contralateral nephrectomy (unilateral IRI-AKI). In a separate cohort, mice were treated with vehicle or 200 μg of PHAD followed by bilateral IRI-AKI. Mice were monitored for 3 days after reperfusion and euthanized.\n(§2) Kidney function was assessed by blood urea nitrogen (BUN) and serum creatinine measurements. Kidney tubular injury was assessed by semi-quantitative analysis of tubular morphology on PAS-stained kidney sections, and kidney mRNA quantification of injury (N-Gal, Kim-1 and HO-1) and inflammation (IL-6, IL-1b and TNF-α) using qRT-PCR technique. Additional studies were conducted using immunohistochemistry to quantify Kim-1 and F4/80 protein to assess kidney injury and macrophages, respectively. […] Histological injury and N-Gal mRNA were lower, and IL-1b mRNA higher in 200 μg 3D 6-Acyl PHAD treated mice.\n(§3) Ischemia Reperfusion Induced Acute Kidney Injury. Male BALB/c mice, 10- to 11-weeks old (22 to 25 g) were purchased from Charles River (Hollister, CA), and were allowed to acclimate for one week prior to studies. IRI-AKI surgery was performed under ketamine/xylazine anesthesia (120 mg/kg [3 mg ketamine], 12 mg/kg [0.3 mg] xylazine) administered in 100 μl sterile saline by intraperitoneal (IP) injection. Mice underwent two types of surgery to induce IRI-AKI. Unilateral IRI-AKI with contralateral nephrectomy (unilateral IRI), and in separate cohorts, bilateral IRI-AKI. For unilateral IRI, the mouse was placed prone on a heat pad set to 37° C., and incisions were made in the muscle and skin to exteriorize the right kidney for nephrectomy. The adrenal gland was displaced from the kidney, and 5-0 silk suture (Ethicon, LA53G) was tied around the renal artery, vein, and ureter with a double surgical knot, before the kidney was removed by cutting distally to the knot. The left kidney was then exteriorized, and fat and connective tissue were dissected from the renal pedicle to expose the renal artery and vein. A vascular clamp (Roboz, cat #RS-5459) was applied to the renal vasculature for 28 minutes. The kidney was tucked back under the skin and the mouse was kept warm on the heat pad during the 28 minutes of ischemia time. For bilateral IRI-AKI, mice underwent bilateral renal artery ischemia for 24 minutes without nephrectomy. Successful ischemia was confirmed by a dark purple appearance of the kidney prior to clamp removal, and successful reperfusion was confirmed by a return to the normal pink color of the kidney within 1-2 min of clamp removal. Upon removing the vascular clamp, the muscle wall was closed with 6-0 absorbable suture (Ethicon, J492G) followed by skin closure with 7 mm wound clips (Roboz, RS-9255, RS-9250). Upon skin closure, mice received 0.5 ml of warm sterile saline subcutaneous (SQ) immediately after surgery, and at 24 hours after surgery. Analgesia was provided with buprenorphine SQ immediately after surgery and every 12 hours for 3 days. Sham operated mice underwent the same surgical approaches (for unilateral IRI-AKI, they underwent right nephrectomy, but the left renal pedicle was not clamped, and for bilateral IRI-AKI, both kidneys were exteriorized but the renal pedicles were not clamped). Blood was collected at baseline (prior to injury), and days 1 and 3 after injury by submandibular vein puncture into a lithium-heparin coated microcuvette tubes, and plasma frozen at −80° C. for blood urea nitrogen (BUN) and creatinine assays. […]"}, "bilateral IRI-AKI": {"tested_on": "bilateral IRI-AKI", "assay": "Bilateral IRI-AKI (bilateral renal pedicle clamping 24 min) in mice pretreated with PHAD", "format": "in vivo, mouse (male BALB/c)", "description": "as §1, §2, §3"}, "[1]": {"settings": "IV PHAD 2, 20, 200 μg/mouse 48 and 24 h before injury, vs vehicle, post-injury day 1 and 3 (FIG. 1A)"}, "[2]": {"settings": "IV PHAD 200 μg/mouse 48 and 24 h before injury, 24 and 72 hours after bilateral IRI-AKI (FIG. 2A)"}, "[3]": {"settings": "IV PHAD 200 μg/mouse vs vehicle, Day 3 (FIG. 2F)"}, "[4]": {"settings": "IV PHAD 200 μg/mouse vs vehicle, Day 3 (FIG. 3)"}}, "note": "“Also recorded” adds a separate entry of the source."}
{"smiles": "CCCCCCCCCCCCCC(=O)OC(CCCCCCCCCCC)CC(=O)NC1C(O)OC(COC2OC(CO)C(OP(=O)(O)O)C(OC(=O)CC(CCCCCCCCCCC)OC(=O)CCCCCCCCCCCCC)C2NC(=O)CC(CCCCCCCCCCC)OC(=O)CCCCCCCCCCCCC)C(O)C1O.N", "note": "(stereo not shown) [PHAD, monophosphoryl hexa-acyl Lipid A, 3-Deacyl 6-acyl phosphorylated hexa-acyl disaccharide]", "values": [{"measurement": "Histological injury", "setting": "unilateral IRI-AKI; 200 μg (Example 1)", "result": "lower"}, {"measurement": "IL-1b mRNA", "setting": "unilateral IRI-AKI; 200 μg (Example 1)", "result": "higher"}, {"measurement": "renal Kim-1 mRNA expression (qRT-PCR)", "setting": "unilateral IRI-AKI; 200 μg PHAD, Day 3 (FIG. 1E)", "result": "no reduction"}, {"measurement": "renal N-Gal mRNA expression (qRT-PCR)", "setting": "unilateral IRI-AKI; 200 μg PHAD, Day 3 (FIG. 1E)", "result": "reduction in expression"}, {"measurement": "renal N-Gal mRNA expression (qRT-PCR)", "setting": "unilateral IRI-AKI; 200 μg PHAD, Day 3 (FIG. 1E), listed as 3D 6-Acyl PHAD", "result": "lower"}, {"measurement": "survival compared with the vehicle control group", "setting": "unilateral IRI-AKI; 2 and 20 μg pretreatment dose (FIG. 1D)", "result": "more mice survived"}, {"measurement": "BUN levels", "setting": "unilateral IRI-AKI; [1]", "result": "reduced elevations"}, {"measurement": "creatinine levels", "setting": "unilateral IRI-AKI; [1]", "result": "reduced elevations"}, {"measurement": "renal IL-1β mRNA (qRT-PCR)", "setting": "unilateral IRI-AKI; IV PHAD 2, 20, 200 μg/mouse vs vehicle control (FIG. 1E)", "result": "dose-dependent increase"}, {"measurement": "3-day survival", "setting": "unilateral IRI-AKI; IV PHAD 2, 20, 200 μg/mouse vs vehicle, log-rank test (FIG. 1D)", "result": "no significant improvement in survival"}, {"measurement": "tubular injury in the cortex and OSOM (PAS-stained sections)", "setting": "unilateral IRI-AKI; IV PHAD, increasing doses, Day 3 after injury (FIGS. 1B, 1C)", "result": "reduced tubular injury"}, {"measurement": "renal function", "setting": "unilateral IRI-AKI; pretreatment with PHAD at 48 and 24 h before unilateral IRI-AKI (Example 1)", "result": "dose-dependent preservation of renal function"}, {"measurement": "BUN levels", "setting": "bilateral IRI-AKI; [2]", "result": "reduced"}, {"measurement": "creatinine levels", "setting": "bilateral IRI-AKI; [2]", "result": "reduced"}, {"measurement": "3-day survival", "setting": "bilateral IRI-AKI; IV PHAD 200 μg/mouse vs vehicle (FIG. 6)", "result": "no difference in survival"}, {"measurement": "renal IL-1β mRNA (qRT-PCR)", "setting": "bilateral IRI-AKI; [3]", "result": "increased"}, {"measurement": "renal IL-6 mRNA (qRT-PCR)", "setting": "bilateral IRI-AKI; [3]", "result": "no differences"}, {"measurement": "renal Kim-1 mRNA (qRT-PCR)", "setting": "bilateral IRI-AKI; [3]", "result": "no differences"}, {"measurement": "renal N-Gal mRNA (qRT-PCR)", "setting": "bilateral IRI-AKI; [3]", "result": "lower levels"}, {"measurement": "renal Tnf-α mRNA (qRT-PCR)", "setting": "bilateral IRI-AKI; [3]", "result": "no differences"}, {"measurement": "F4/80 staining for renal macrophages", "setting": "bilateral IRI-AKI; [4]", "result": "no difference in F4/80 staining"}, {"measurement": "area of cells expressing Kim-1 protein (immunostaining), outer medulla", "setting": "bilateral IRI-AKI; [4]", "result": "significant reduction; also recorded: significantly reduced"}, {"measurement": "renal expression of Ho-1 mRNA (qRT-PCR)", "setting": "bilateral IRI-AKI; IV PHAD 200 μg/mouse vs vehicle, Day 3 (FIG. 4A)", "result": "reduced"}, {"measurement": "renal Irf-1 mRNA (qRT-PCR)", "setting": "bilateral IRI-AKI; IV PHAD 200 μg/mouse vs vehicle, Day 3 (FIG. 4B)", "result": "no differences in expression"}, {"measurement": "renal Ccl-2 mRNA (qRT-PCR)", "setting": "bilateral IRI-AKI; IV PHAD 200 μg/mouse vs vehicle, Day 3 (FIG. 4C)", "result": "no differences in expression"}, {"measurement": "renal Ccl-3 mRNA (qRT-PCR)", "setting": "bilateral IRI-AKI; IV PHAD 200 μg/mouse vs vehicle, Day 3 (FIG. 4D)", "result": "no differences in expression"}, {"measurement": "tubular injury (PAS-stained sections, outer stripe of outer medulla)", "setting": "bilateral IRI-AKI; IV PHAD 200 μg/mouse, Day 3 (FIGS. 2B, 2D)", "result": "reduced tubular injury"}, {"measurement": "apoptosis (TUNEL, outer stripe of outer medulla)", "setting": "bilateral IRI-AKI; IV PHAD 200 μg/mouse, Day 3 (FIGS. 2C, 2E)", "result": "reduced apoptosis"}]}
